IC50 data for 90 molecules are collected here from patent US12534742B2, “Compound for regulating gene editing efficiency and application thereof” (Shanghai Institute of Organic Chemistry, Chinese Academy of …, priority 2018, dated 2026).

SMILES strings stand for the structures.
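Further: Cell-based reporter with a SpyCas9 target site placed in EGFP, where NHEJ repair of the cut restores the reading frame, read-out is the share of EGFP-positive cells, lowered by inhibitors.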

The experiment deals with CRISPR/Cas9 from Streptococcus pyogenes (SpyCas9) (Streptococcus pyogenes serotype M1, UniProt Q99ZW2). The experiment can be described thus: cell-based.
Chain of CRISPR/Cas9 from Streptococcus pyogenes (SpyCas9) (Q99ZW2 whole entry): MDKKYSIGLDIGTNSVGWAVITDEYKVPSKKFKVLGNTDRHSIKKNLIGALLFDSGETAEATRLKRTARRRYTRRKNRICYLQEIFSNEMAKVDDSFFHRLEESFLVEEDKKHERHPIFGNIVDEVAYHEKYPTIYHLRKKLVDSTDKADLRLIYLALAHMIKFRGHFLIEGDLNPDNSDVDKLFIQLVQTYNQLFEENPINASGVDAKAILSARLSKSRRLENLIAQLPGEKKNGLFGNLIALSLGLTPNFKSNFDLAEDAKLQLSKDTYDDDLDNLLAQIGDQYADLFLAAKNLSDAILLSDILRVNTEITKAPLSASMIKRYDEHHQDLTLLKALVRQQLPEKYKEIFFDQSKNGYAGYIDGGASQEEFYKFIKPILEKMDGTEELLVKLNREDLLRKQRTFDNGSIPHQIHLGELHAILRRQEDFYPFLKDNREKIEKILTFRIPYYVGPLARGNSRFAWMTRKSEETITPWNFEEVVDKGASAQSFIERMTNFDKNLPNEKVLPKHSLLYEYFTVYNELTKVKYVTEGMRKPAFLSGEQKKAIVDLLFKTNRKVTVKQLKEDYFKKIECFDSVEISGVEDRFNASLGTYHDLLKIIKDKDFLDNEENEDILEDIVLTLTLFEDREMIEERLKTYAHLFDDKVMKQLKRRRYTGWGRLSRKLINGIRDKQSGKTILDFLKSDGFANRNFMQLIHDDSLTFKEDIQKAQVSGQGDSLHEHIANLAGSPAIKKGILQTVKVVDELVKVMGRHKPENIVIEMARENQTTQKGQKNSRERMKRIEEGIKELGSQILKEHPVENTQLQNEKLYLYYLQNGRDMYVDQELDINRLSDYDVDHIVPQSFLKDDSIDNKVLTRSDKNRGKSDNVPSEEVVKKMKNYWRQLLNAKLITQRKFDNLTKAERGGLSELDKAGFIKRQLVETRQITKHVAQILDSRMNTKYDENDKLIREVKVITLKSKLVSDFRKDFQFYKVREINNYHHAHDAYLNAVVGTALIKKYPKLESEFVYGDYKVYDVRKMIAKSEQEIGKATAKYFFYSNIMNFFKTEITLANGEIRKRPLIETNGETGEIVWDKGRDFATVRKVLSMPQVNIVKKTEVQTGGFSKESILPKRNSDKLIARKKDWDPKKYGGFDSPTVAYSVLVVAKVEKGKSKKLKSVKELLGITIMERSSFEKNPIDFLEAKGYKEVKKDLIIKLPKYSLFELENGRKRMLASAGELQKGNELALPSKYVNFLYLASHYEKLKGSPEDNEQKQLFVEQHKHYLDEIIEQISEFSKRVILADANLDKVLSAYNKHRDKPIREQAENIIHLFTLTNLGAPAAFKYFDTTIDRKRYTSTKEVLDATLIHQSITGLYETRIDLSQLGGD
Source text: The CRISPR/Cas9 recognition site was inserted into the EGFP coding sequence so that the downstream sequence of the CRISPR/Cas9 recognition site was inside the box. The EGFP sequence was cleaved by Cas9 to produce double-strand breaks (DSBs), which would repair one of the two DNA repair mechanisms in the cell: non-homologous end joining (NHEJ) or homologous directed repair (HDR). The insertion or deletion introduced by NHEJ would restore the open reading frame of EGFP, thus activating EGFP fluorescence (FIG. 1).
The term IC50 denotes the point on the concentration scale where inhibition reaches its midpoint. In turn, `C=C(C)C(=O)N(CC)CC` [Compound 894] returned an IC50 of more than 100 µM. `COc1cc(/C=C/C(=O)N2CCC=CC2=O)cc(OC)c1OC` [Compound 905, Piperlongumine] came in with an IC50 of 1 to 10 µM. On to `O=c1c(O)c(-c2ccc(O)c(O)c2)oc2cc(O)cc(O)c12` [Compound 850], for which the IC50 was more than 100 µM.

Turning to `CCOCCNC(=O)/C=C/c1ccccc1` [Compound 853], the IC50 was more than 100 µM.

In turn, `CN(C(=O)/C=C/c1ccccc1)c1ccccc1` [Compound 863] had an IC50 of more than 100 µM. Molecule `O=S(=O)(/C=C/c1ccccc1)c1ccc(Cl)cc1` [Compound 893] showed an IC50 of more than 100 µM. The molecule `O=S(=O)(/C=C/c1ccccc1)Oc1ccc(I)cc1` [Compound 877] gave an IC50 of more than 100 µM. With `O=C(/C=C/c1cc(F)c(F)c(F)c1)c1ccccc1` [Compound 110] the figure was 10 to 100 µM. `O=S(=O)(/C=C/c1ccccc1)N1CCOCC1` [Compound 864] came in with a 50% inhibitory concentration (IC50) of more than 100 µM. Molecule `COC(=O)/C=C/C(=O)OC` [Compound 826] displayed an IC50 of more than 100 µM. As for `C=C(C)C(N)=O` [Compound 825], the IC50 is more than 100 µM.

In the case of `O=C1CC(c2ccccc2O)Oc2ccccc21` (stereo not drawn) [Compound 816], the IC50 was more than 100 µM. With `COc1ccc(COCCCCC2=C3CCC(C)CC3CC2=O)cc1` (stereo not drawn) [Compound 897] the figure was more than 100 µM; with `O=C(O)/C=C/c1cccc(O)c1` [Compound 801], more than 100 µM; with `O=C(/C=C/c1ccc(O)cc1)c1ccccc1` [Compound 12], 10 to 100 µM. Regarding `O=C(/C=C/c1ccc2c(c1)OCO2)c1ccccc1` [Compound 886], the 50% inhibitory concentration (IC50) was more than 100 µM.

As to `CCOCCNS(=O)(=O)/C=C/c1ccccc1` [Compound 867], the IC50 was more than 100 µM. `C=CC(=O)OC` [Compound 828] yielded an IC50 of more than 100 µM. For `O=C1C=CCCC1` [Compound 885], the IC50 was more than 100 µM.

Consider `O=C(/C=C/c1ccc(O)cc1)c1ccc(O)cc1O` [Compound 813], for which the IC50 was more than 100 µM. The molecule `O=Cc1cc2c(cc1C#Cc1ccccc1)OCO2` [Compound 898] registered an IC50 of more than 100 µM. `CC(C)(C)OC(=O)N1CCN(S(=O)(=O)/C=C/c2ccccc2)CC1` [Compound 866] came in with a 50% inhibitory concentration (IC50) of more than 100 µM. The molecule `O=C(/C=C/c1ccccc1)Nc1cccnc1` [Compound 862] displayed an IC50 of more than 100 µM. For the molecule `O=C(/C=C/c1ccccc1)Nc1ccc([N+](=O)[O-])cc1` [Compound 861], the IC50 is more than 100 µM. With `O=S(=O)(/C=C/c1ccccc1)Oc1ccc(Br)cc1` [Compound 880] the figure was more than 100 µM; with `O=C(/C=C/c1cccc(Cl)c1)c1ccccc1` [Compound 104], 10 to 100 µM. `CCN(CC)C(=O)/C=C/c1ccccc1` [Compound 842]: the 50% inhibitory concentration (IC50) is more than 100 µM. As to `CN(c1ccccc1)S(=O)(=O)F` [Compound 883], the IC50 is more than 100 µM. For `NC(=O)/C(=C/n1cnc(-c2cc(C(F)(F)F)cc(C(F)(F)F)c2)n1)c1cncnc1` [Compound 904], the IC50 was 1 to 10 µM. With `CC1CC(C)CN(S(=O)(=O)/C=C/c2ccccc2)C1` (stereo not drawn) [Compound 870] the figure was more than 100 µM; with `Oc1cc(O)c2c(c1)O[C@H](c1ccc(O)c(O)c1)[C@@H](O)C2` [Compound 814], more than 100 µM. With `C=CC(=O)N(C)C` [Compound 829], the IC50 is more than 100 µM. Regarding `O=C(/C=C/c1ccccc1)c1ccc(Cl)cc1` [Compound 105], the IC50 lay in the range of 10 to 100 µM.

On to `O=C(/C=C/c1ccc(Br)cc1)c1ccccc1` [Compound 101], for which the IC50 is 10 to 100 µM. `COc1ccc(CNC(=O)/C=C/c2ccccc2)cc1` [Compound 846] showed an IC50 of more than 100 µM.

Molecule `CC(=O)/C=C/c1cc2c(cc1Br)OCO2` [Compound 889] registered an IC50 of more than 100 µM. Molecule `CN(C)C/C=C/C(=O)O` [Compound 876] gave an IC50 of more than 100 µM. As to `NS(=O)(=O)/C=C/c1ccccc1` [Compound 865], the IC50 is more than 100 µM. The molecule `CS(=O)(=O)/C=C/c1ccccc1` [Compound 847] gave an IC50 of more than 100 µM. With `CCC1(O)C(=O)OCc2c1cc1n(c2=O)Cc2cc3ccccc3nc2-1` (stereo not drawn) [Compound 874] the figure was more than 100 µM; with `C/C(O)=C(\C#N)C(=O)Nc1ccc(C(F)(F)F)cc1` [Compound 837], more than 100 µM. On to `O=C(/C=C\n1cnc(-c2cc(C(F)(F)F)cc(C(F)(F)F)c2)n1)NNc1ccccn1` [Compound 901], for which the IC50 fell in the range of 1 to 10 µM. Then `CC(C)c1ccc(OS(=O)(=O)/C=C/c2ccccc2)cc1` [Compound 878], with more than 100 µM. In the case of `O=C(/C=C/c1cccc(Cl)c1)c1cccc(Cl)c1` [Compound 895], the IC50 is more than 100 µM.

In turn, `CCN(CC)S(=O)(=O)/C=C/c1ccccc1` [Compound 868] registered an IC50 of more than 100 µM. For `O=C(/C=C/c1ccccc1)c1ccc(Br)cc1` [Compound 900], the IC50 was more than 100 µM. With `C=CS(=O)(=O)c1ccccc1` [Compound 32] the figure was 10 to 100 µM; with `COC(=O)/C=C/c1ccc(O)cc1` [Compound 804], more than 100 µM; with `O=C(/C=C/c1ccccc1)Nc1c(F)cccc1F` [Compound 859], more than 100 µM.

`CC(C)N(C(C)C)S(=O)(=O)/C=C/c1ccccc1` [Compound 871] had an IC50 of more than 100 µM. Take `O=C(/C=C/c1ccccc1)N1CCCC1` [Compound 855]: the IC50 was more than 100 µM. The molecule `COc1ccc(/C=C/S(=O)(=O)c2ccc(Cl)cc2)cc1` [Compound 892] returned an IC50 of more than 100 µM. In turn, `CC(C)(C)OC(=O)N1CCN(C(=O)/C=C/c2ccccc2)CC1` [Compound 844] had an IC50 of more than 100 µM.

As for `O=S(F)(=Nc1ccc(Br)cc1)Oc1ccc(Br)cc1` (stereo not drawn) [Compound 881], the IC50 was more than 100 µM. Turning to `O=C1CC(c2cccc(O)c2)Oc2ccccc21` (stereo not drawn) [Compound 817], the IC50 was more than 100 µM. The molecule `O=S(F)(=Nc1ccc(Br)cc1)N1CCC(Cc2ccccc2)CC1` (stereo not drawn) [Compound 882] had an IC50 of more than 100 µM. Molecule `C/C(C=O)=C\c1ccccc1` [Compound 827] displayed an IC50 of more than 100 µM. For `Cc1cccc(C2CCCN2S(=O)(=O)F)c1` (stereo not drawn) [Compound 884], the IC50 was more than 100 µM.

`O=C(/C=C\n1cnc(-c2cc(C(F)(F)F)cc(C(F)(F)F)c2)n1)N1CC(F)(F)C1` [Compound 903]: the IC50 lay within 1 to 10 µM. `O=C(/C=C/c1ccccc1)NC1CC1` [Compound 854] yielded an IC50 of more than 100 µM. For the molecule `O=c1c(O)c(-c2ccc(O)cc2)oc2ccccc12` [Compound 815], the IC50 is more than 100 µM. Molecule `CSc1ccc(NC(=O)/C=C/c2ccccc2)cc1` [Compound 860] came in with an IC50 of more than 100 µM. Then `O=C(/C=C/c1ccccc1)N1CCOCC1` [Compound 841], with more than 100 µM; and `CC(=O)/C=C/c1ccccc1` [Compound 890], with more than 100 µM; and `O=S(=O)(/C=C/c1ccccc1)N1CCCCC1` [Compound 872], with more than 100 µM. As for `CN(C)C/C=C/C(=O)Nc1cc2c(Nc3ccc(F)c(Cl)c3)ncnc2cc1O[C@@H]1CCOC1` [Compound 833], the IC50 was more than 100 µM.

Regarding `O=C(/C=C/c1cccc(Br)c1)c1cccc(Br)c1` [Compound 896], the IC50 was more than 100 µM.

Molecule `COc1cc(-c2ncn(/C=C\C(=O)OC(C)C)n2)cc(C(F)(F)F)c1` [Compound 902] displayed an IC50 of 1 to 10 µM. Molecule `CN(C)c1ccc(/C=C/C(=O)c2ccccc2)cc1` [Compound 887] came in with an IC50 of more than 100 µM. `CN(C)C(=O)/C=C/c1ccccc1` [Compound 843] returned a concentration for half-maximal inhibition (IC50) of more than 100 µM. The molecule `O=S(=O)(/C=C/c1ccccc1)N1CCN(Cc2ccccc2)CC1` [Compound 869] showed an IC50 of more than 100 µM. Then `O=C1C=CCC1` [Compound 888], with more than 100 µM; and `N#C/C(=C1/SC[C@@H](c2ccc(Cl)cc2Cl)S1)n1ccnc1` [Compound 835], with more than 100 µM; and `C=CS(C)(=O)=O` [Compound 830], with more than 100 µM.

In the case of `COc1cc(/C=C/C(=O)CC(=O)/C=C/c2ccc(O)c(OC)c2)ccc1O` [Compound 75], the IC50 was in the range of 10 to 100 µM. Turning to `COc1cc(/C=C/C(=O)O)ccc1O` [Compound 803], the IC50 was more than 100 µM. Consider `O=S(=O)(/C=C/c1ccccc1)Oc1cccc(F)c1` [Compound 879], for which the IC50 is more than 100 µM. Turning to `Cc1ccc(=O)n(-c2ccccc2)c1` [Compound 836], the 50% inhibitory concentration (IC50) is more than 100 µM. With `NC(=O)/C=C/c1ccccc1` [Compound 851] the figure was more than 100 µM. Then `CCN(Cc1ccccc1)S(=O)(=O)/C=C/c1ccccc1` [Compound 873], with more than 100 µM; and `O=C(/C=C/c1ccccc1Br)c1ccccc1` [Compound 127], with 10 to 100 µM.

Regarding `O=C(/C=C/c1ccccc1)N1CCN(Cc2ccccc2)CC1` [Compound 845], the IC50 is more than 100 µM. `COc1cc(/C=C/c2ccc(O)cc2)cc(OC)c1` [Compound 811] showed an IC50 of more than 100 µM. In the case of `CNC(=O)c1ccccc1Sc1ccc2c(/C=C/c3ccccn3)n[nH]c2c1` [Compound 834], the IC50 is more than 100 µM. Then `O=C(/C=C/c1ccccc1)N1CCCCC1` [Compound 840], with more than 100 µM; and `COc1ccc(C(=O)/C=C/c2ccccc2)cc1` [Compound 102], with 10 to 100 µM.

In turn, `C#CCCOc1cccc(/C=C/S(=O)(=O)F)c1` [Compound 119] registered an IC50 of 1 to 10 µM. Then `COc1ccc(/C=C/C(=O)c2ccccc2)cc1` [Compound 111], with 10 to 100 µM. Then `O=C(O)/C=C/c1ccc(O)cc1` [Compound 802], with more than 100 µM; and `CCN1C(=O)C=CC1=O` [Compound 838], with more than 100 µM.
